Assay results from ChEMBL document CHEMBL5226338, “Molecular hybrids: A five-year survey on structures of multiple targeted hybrids of protein kinase inhibitors for cancer therapy” (Eur J Med Chem, 2021).
Blank lines part the entries; values can stand above or below the molecule they belong to.

Tests used:
Histone deacetylase 1 [1] = target: T1, Histone deacetylase 1 (Homo sapiens, UniProt Q13547); test: Inhibition of recombinant HDAC1 (unknown origin) using Fluor-de-Lys as substrate incubated for 10 mins by fluorescence based analysis
T1 sequence (Q13547 whole entry): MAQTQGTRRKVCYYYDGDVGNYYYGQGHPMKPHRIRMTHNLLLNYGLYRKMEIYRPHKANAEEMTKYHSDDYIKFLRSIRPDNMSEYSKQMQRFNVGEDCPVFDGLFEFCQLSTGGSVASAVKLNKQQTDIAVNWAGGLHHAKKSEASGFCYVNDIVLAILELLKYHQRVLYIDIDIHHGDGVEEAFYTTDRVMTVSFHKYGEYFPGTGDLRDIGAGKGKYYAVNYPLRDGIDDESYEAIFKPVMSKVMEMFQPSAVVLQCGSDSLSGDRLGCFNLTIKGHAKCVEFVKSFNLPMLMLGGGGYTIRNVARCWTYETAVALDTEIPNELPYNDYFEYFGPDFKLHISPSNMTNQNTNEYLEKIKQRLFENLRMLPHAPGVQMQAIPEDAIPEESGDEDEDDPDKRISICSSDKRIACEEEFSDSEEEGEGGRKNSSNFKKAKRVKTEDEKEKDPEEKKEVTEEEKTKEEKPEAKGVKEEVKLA

[2] = target: Serine/threonine-protein kinase B-raf (Homo sapiens, UniProt P15056, V600E); test: Inhibition of full length human BRAF V600E mutant using His-tagged full length human MEK1 (K97R) as substrate incubated for 20 mins by [gamma-33P]ATP based filter-binding method
Serine/threonine-protein kinase B-raf, sequence (P15056 2-766 V600E limits assumed): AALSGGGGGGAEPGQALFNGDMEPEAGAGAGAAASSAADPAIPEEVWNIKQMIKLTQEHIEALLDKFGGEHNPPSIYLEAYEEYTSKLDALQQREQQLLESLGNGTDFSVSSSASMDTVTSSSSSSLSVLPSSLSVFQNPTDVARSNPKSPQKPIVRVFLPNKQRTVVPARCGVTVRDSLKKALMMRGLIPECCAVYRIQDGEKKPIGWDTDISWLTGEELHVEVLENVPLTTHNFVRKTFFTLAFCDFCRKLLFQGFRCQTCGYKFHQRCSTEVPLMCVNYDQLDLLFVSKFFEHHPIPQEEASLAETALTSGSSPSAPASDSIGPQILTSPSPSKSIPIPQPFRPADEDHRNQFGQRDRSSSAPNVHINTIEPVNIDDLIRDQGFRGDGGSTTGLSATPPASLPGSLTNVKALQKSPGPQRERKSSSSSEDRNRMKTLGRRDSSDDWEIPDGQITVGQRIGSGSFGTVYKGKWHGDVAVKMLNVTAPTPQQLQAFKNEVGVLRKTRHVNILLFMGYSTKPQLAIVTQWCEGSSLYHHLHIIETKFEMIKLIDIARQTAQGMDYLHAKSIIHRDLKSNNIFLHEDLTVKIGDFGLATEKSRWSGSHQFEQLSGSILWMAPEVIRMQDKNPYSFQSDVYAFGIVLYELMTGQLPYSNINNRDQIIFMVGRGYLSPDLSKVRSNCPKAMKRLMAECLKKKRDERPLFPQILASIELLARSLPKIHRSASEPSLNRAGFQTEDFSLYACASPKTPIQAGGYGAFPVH

SK-MEL-1 = test: Antiproliferative activity against human SK-MEL-1 cells assessed as inhibition of cell growth incubated for 72 hrs by MTT assay; assay type: functional, cell-based; details: SK-MEL-1, 72 h
Tubulin [3] = target: Tubulin (Bos taurus, UniProt Q6B856+Q862L2+Q862F3); test: Inhibition of bovine brain tubulin polymerization incubated for 20 mins by spectrophotometric method; assay type: tissue-based
Cyclin-dependent kinase = test: Inhibition of CDK (unknown origin); assay type: protein assay, Homo sapiens
U-937 = test: Antiproliferative activity against human U-937 cells assessed as inhibition of cell growth incubated for 72 hrs by MTT assay; assay type: functional, cell-based; details: U-937, 72 h
MCF7 = test: Cytotoxicity against human MCF7 cells assessed as inhibition of cell growth incubated for 24 hrs by MTT assay; assay type: functional, cell-based; details: MCF7, 24 h
Tubulin [4] = test: Inhibition of MAP-rich tubulin (unknown origin) polymerization; assay type: protein-complex assay, Homo sapiens
MDA-MB-231 = test: Cytotoxicity against human MDA-MB-231 cells assessed as inhibition of cell growth incubated for 24 hrs by MTT assay; assay type: functional, cell-based; details: MDA-MB-231, 24 h
[5] = target: T2, Epidermal growth factor receptor (Homo sapiens, UniProt P00533); test: Inhibition of GST-fused EGFR (unknown origin) in presence of ATP by microplate reader analysis
T2 sequence (P00533 whole entry, the tested form may be a part): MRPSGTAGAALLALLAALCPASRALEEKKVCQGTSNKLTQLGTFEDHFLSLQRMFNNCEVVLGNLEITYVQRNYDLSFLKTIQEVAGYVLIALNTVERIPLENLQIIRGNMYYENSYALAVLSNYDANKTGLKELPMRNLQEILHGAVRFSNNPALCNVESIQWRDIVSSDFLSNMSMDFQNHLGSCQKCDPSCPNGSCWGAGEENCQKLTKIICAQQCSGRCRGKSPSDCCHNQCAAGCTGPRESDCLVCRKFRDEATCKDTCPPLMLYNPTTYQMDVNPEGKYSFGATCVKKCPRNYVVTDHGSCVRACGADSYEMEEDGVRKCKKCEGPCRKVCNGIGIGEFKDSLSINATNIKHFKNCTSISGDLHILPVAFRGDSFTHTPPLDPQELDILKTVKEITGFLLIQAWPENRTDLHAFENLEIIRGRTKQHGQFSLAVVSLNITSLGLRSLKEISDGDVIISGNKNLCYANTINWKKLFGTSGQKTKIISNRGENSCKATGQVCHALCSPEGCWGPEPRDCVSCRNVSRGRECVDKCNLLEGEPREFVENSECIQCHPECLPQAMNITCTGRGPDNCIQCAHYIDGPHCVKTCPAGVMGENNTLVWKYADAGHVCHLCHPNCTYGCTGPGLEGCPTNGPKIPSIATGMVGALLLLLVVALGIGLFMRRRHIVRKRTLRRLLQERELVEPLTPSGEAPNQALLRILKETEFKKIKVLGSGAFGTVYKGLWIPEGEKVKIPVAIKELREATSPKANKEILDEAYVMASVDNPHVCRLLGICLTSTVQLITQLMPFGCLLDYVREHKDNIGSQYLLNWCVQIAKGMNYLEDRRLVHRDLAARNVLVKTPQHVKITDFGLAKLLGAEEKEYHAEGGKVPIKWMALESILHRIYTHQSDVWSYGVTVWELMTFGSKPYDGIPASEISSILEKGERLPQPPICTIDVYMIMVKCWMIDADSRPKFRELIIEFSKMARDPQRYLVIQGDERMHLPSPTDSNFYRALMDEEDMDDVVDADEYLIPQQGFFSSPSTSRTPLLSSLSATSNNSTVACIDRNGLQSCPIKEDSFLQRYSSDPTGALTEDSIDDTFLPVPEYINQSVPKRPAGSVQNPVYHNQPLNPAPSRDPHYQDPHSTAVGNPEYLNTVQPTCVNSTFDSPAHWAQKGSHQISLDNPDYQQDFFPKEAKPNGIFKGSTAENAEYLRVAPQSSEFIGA

Bcr/Abl fusion protein = Bcr/Abl fusion protein (Homo sapiens, UniProt P00519); test: Inhibition of BCR-Abl (unknown origin) incubated for 1 hr by ADP-glo assay; assay type: protein assay
Histone deacetylase 1 [6] = target: T1, Histone deacetylase 1; test: Inhibition of full length human recombinant HDAC1 using AcLys-Tyr-Lys(e-acetyl)-AMC as substrate incubated for 24 hrs
Tubulin beta [7] = test: Inhibition of beta-tubulin polymerization (unknown origin) by ELISA; assay type: protein assay, Homo sapiens
[8] = target: T3, Vascular endothelial growth factor receptor 2 (Homo sapiens, UniProt P35968); test: Inhibition of human VEGFR2 using TMB as substrate by ELISA
T3 sequence (P35968 whole entry): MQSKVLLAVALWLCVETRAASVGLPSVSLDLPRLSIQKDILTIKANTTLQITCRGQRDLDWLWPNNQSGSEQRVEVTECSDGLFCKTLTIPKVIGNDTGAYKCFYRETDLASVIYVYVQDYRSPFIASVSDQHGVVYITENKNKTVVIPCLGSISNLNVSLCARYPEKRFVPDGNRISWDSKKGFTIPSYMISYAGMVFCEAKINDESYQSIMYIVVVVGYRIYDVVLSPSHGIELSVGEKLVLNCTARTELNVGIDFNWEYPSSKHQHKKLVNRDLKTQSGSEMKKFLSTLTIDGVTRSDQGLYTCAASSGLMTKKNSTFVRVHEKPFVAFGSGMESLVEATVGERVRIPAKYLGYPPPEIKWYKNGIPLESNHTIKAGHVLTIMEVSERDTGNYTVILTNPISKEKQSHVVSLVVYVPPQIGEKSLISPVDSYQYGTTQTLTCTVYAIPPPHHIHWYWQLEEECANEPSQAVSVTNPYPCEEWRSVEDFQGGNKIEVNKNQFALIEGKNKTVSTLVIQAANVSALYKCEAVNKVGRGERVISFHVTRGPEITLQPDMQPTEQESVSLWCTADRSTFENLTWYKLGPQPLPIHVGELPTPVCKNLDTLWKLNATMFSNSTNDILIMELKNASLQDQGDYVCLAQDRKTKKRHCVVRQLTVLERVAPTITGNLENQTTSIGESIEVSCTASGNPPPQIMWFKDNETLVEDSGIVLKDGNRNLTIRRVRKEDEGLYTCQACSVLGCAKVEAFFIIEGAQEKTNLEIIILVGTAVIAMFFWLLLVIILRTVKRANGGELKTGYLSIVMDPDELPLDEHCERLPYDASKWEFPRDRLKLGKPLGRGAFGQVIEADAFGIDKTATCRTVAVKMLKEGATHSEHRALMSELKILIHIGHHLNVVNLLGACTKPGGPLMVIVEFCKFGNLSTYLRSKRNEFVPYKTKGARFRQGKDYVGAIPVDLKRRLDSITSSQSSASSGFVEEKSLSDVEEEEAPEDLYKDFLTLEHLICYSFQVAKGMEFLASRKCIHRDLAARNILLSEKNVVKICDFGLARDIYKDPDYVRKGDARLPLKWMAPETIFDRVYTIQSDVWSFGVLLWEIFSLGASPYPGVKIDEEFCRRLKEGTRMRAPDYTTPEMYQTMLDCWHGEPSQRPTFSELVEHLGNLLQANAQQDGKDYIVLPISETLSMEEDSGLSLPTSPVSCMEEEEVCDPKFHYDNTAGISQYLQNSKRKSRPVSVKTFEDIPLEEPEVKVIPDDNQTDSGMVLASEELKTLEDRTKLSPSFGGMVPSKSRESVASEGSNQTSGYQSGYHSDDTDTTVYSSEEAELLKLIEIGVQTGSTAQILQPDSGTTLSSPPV

[9] = target: Tubulin beta (Homo sapiens) (UniProt P68371+Q9H4B7+Q13509+P04350+Q3ZCM7+P07437+Q13885+Q9BVA1+Q9BUF5+A6NNZ2); test: Inhibition of beta-tubulin polymerization in human HepG2 cells using TMB substrate by spectrophotometry analysis relative to control; assay type: cell-based; details: concentration not given here
Histone deacetylase = test: Inhibition of HDAC in human HeLa cell nuclear extract using Boc-Lys (acetyl)-AMC as substrate preincubated for 15 mins followed by substrate addition and measured after 60 mins by fluorescence based analysis; assay type: subcellular, Nucleus
[10] = target: MAP kinase-interacting serine/threonine-protein kinase 1 (Homo sapiens) (UniProt Q9BUB5); test: Inhibition of MNK1 (unknown origin) at 1 uM incubated for 60 mins by HTRF assay relative to control
MAP kinase-interacting serine/threonine-protein kinase 1 (Homo sapiens), sequence (Q9BUB5 whole entry, looked up): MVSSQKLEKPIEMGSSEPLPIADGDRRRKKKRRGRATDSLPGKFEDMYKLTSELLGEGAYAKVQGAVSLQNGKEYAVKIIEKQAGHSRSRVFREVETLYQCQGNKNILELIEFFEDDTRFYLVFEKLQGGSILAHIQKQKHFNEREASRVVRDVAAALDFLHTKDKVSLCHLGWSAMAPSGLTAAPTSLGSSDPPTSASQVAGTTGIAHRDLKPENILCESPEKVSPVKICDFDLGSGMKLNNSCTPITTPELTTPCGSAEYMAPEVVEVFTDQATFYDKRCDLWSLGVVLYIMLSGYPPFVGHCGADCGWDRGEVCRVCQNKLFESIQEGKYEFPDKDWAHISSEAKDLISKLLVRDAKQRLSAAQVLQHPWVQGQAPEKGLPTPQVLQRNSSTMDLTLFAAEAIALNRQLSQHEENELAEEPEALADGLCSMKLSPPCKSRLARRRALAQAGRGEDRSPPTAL

[11] = target: MAP kinase-interacting serine/threonine-protein kinase 2 (Homo sapiens) (UniProt Q9HBH9); test: Inhibition of MNK2 (unknown origin) at 1 uM incubated for 60 mins by HTRF assay relative to control
K562 [12] = test: Cytotoxicity against human K562 cells assessed as inhibition of cell growth; assay type: functional, cell-based
K562 [13] = test: Cytotoxicity against imatinib-resistant human K562 cells assessed as inhibition of cell growth; assay type: functional, cell-based
Tubulin beta [14] = test: Inhibition of beta-tubulin polymerization in human HCT-116 cells using TMB substrate by ELISA; assay type: cell-based
[15] = target: [Pyruvate dehydrogenase (acetyl-transferring)] kinase isozyme 1, mitochondrial (Homo sapiens, UniProt Q15118); test: Inhibition of human recombinant PDHK1 using KKKYHGHSMSDPGVSYRT as substrate incubated for 40 mins in presence of Mg/ATP mix by [gamma-32P]-ATP based scintillation counting analysis
[16] = Inhibition of sheep brain tubulin polymerization by DAPI staining based fluorescence analysis; assay type: tissue-based, Ovis aries
[17] = target: T2, Epidermal growth factor receptor; test: Inhibition of EGFR (unknown origin)
DNA topoisomerase 1 = DNA topoisomerase 1 (Homo sapiens, UniProt P11387); test: Inhibition of human DNA topoisomerase 1 incubated for 2 hrs by ELISA
DNA topoisomerase 1, sequence (P11387 whole entry): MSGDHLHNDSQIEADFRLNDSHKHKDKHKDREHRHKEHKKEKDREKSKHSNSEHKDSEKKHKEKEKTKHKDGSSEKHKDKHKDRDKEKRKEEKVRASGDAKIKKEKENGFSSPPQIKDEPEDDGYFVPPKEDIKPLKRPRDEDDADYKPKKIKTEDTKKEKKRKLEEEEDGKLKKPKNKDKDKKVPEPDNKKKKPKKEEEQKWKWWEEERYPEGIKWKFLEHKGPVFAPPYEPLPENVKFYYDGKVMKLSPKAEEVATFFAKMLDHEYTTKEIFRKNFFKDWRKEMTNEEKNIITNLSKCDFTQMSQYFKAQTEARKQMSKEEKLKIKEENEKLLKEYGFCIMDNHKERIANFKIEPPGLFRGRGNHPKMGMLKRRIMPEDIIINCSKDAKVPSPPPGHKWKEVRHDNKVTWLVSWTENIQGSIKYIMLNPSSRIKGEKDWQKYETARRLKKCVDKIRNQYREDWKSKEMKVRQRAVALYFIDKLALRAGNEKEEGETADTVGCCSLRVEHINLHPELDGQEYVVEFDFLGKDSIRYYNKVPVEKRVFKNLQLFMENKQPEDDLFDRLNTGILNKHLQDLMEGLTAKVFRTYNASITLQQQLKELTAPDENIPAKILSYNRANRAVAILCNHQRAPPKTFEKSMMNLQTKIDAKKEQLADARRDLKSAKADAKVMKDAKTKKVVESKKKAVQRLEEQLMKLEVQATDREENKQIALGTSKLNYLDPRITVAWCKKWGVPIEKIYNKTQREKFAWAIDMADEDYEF

[18] = target: T2, Epidermal growth factor receptor; test: Inhibition of EGFR (unknown origin) using poly (Glu,Tyr) 4:1 as substrate incubated for 1 hr in presence of ATP by spectrophotometric analysis relative to sorafenib; details: concentration not given here
[19] = target: T3, Vascular endothelial growth factor receptor 2; test: Inhibition of VEGFR2 (unknown origin) using biotin-gastrin precursor (Tyr87) peptide as substrate incubated for 1 hr in presence of ATP by spectrophotometric analysis relative to sorafenib; details: concentration not given here

IC50 (Histone deacetylase 1 [1]): 635 nM
IC50 [2]: 1700 nM
Compound: COc1ccc(NC(=O)Nc2ccc(Oc3ccc(C(=O)c4ncc[nH]4)cc3)cc2)cc1

IC50 (SK-MEL-1): 8000 nM
IC50 (Tubulin [3]): > 20000 nM
IC50 (Cyclin-dependent kinase): > 10000 nM
IC50 (U-937): 5700 nM
Compound: COc1ccc(CCNc2nc(N)c(C(=O)c3cc(OC)c(OC)c(OC)c3)s2)cc1

IC50 (Tubulin [4]): 9250 nM
IC50 [5]: 75.2 nM
Compound: Fc1ccc(C2=Nc3ccc(F)cc3CN2/N=C\c2ccccc2)cc1
IC50 (MCF7): 350 nM
IC50 (MDA-MB-231): 280 nM

IC50 (Bcr/Abl fusion protein): 21.2 nM
IC50 (Histone deacetylase 1 [6]): 150 nM
Compound: CCN1CCN(Cc2cc(Nc3ncc(C(=O)Nc4ccccc4N)s3)nc(C)n2)CC1

IC50 (Tubulin beta [7]): 108.4 nM
Compound: O=C(Nc1ccccc1C(=O)N/N=C/c1ccc(O)cc1O)c1ccco1

IC50 [8]: 1290 nM
inhibition [9]: 86%
Compound: COc1ccc(NC(=O)c2c(Nc3ccccc3)sc(C(=O)N/N=C/c3ccc(O)c(O)c3)c2NC(C)=O)cc1

IC50 (Histone deacetylase): 780 nM
inhibition [10]: 54%
inhibition [11]: 70%
Compound: O=C(CCCCCCNc1ccc2ncnc(Nc3ccc(F)cc3)c2n1)NO

IC50 [8]: 590 nM
inhibition [9]: 73%
Compound: COc1ccc(NC(=O)c2c(Nc3ccccc3)sc(C#N)c2NC(=O)CNc2ccc(Cl)cc2)cc1

Compound: COc1ccc(S(=O)(=O)N2CCc3cccc(NC=O)c32)cc1
IC50 (K562 [12]): 390 nM
IC50 (K562 [13]): 410 nM

IC50 [5]: 93 nM
IC50 (Tubulin beta [14]): 8400 nM
Compound: CCc1nnc2c(Nc3ccc(C(=O)/C=C/c4cc(OC)c(OC)c(OC)c4)cc3)nc3ccccc3n12

IC50 [15]: 12000 nM
IC50 [16]: 260 nM
Compound: COc1ccc(C(=O)c2cc(OC)c(OC)c(OC)c2)cc1OC(=O)C(Cl)Cl

IC50 [17]: 3000 nM
Compound: O=[N+]([O-])OCCCOc1ccc(Nc2ncnc3c2cnn3-c2ccc(Br)cc2)cc1

IC50 (DNA topoisomerase 1): 278 nM
inhibition [18]: 30%
inhibition [19]: 60%
Compound: N#CC1=C(N)Oc2ccccc2C1c1cc2ccccc2n2nnnc12 (stereo not given)
